Source: US7928236B2, “Fluorescent amino acid derivatives” (National University Corporation Okayama University, priority 2005, dated 2011)

Tests used:
Fluorescence lifetime = format: physicochemical; details: 50 mM PBS (pH7.0), 3×10^−4M, room temperature, excitation 415 nm, measured at 500 nm
Description: Boc-badAla-OH prepared in Example 2 was dissolved in 50 mM PBS (pH7.0) in a concentration of 3×10^−4M, and fluorescence intensity was measured at room temperature at 500 nm, setting the excitation wavelength at 415 nm of blue laser from a simple-type beam system, using Hamamatsu “microchannel photomultiplier tube” supplied by Hamamatsu Photonics K.K. which was cooled to −30° C., and then fluorescence lifetime was measured.
As a result, the obtained fluorescence lifetime was τ=16.6 nanoseconds.
While the lifetime of BODIPY, a commercial product, was 5.7 nanoseconds (MeOH) on the literature, and that of FITC was 4.1 nanoseconds (0.01M NaOH) on the literature. The other primary spectroscopic properties of fluorescent probes were listed on the homepage of IOM GmbH (see, www.iom-berlin.de).

Photostability = format: physicochemical; details: water, 1.2×10^−6M, room temperature, continuous 468 nm irradiation for an hour
Description: Boc-badAla-OH prepared in Example 2 was dissolved in water in a concentration of 1.2×10^−6M, and photostability was examined at room temperature using ISA “FluoroMax-2” analyzer, irradiating a beam of 468 nm excitation wavelength continuously for an hour. As a result, […] an hour after the irradiation, it held 95% fluorescence intensity of that at the start of the experiment (FIG. 6). […] On the other hand, values of commercial products BODIPY and FITC shown on the literature, obtained by dissolving them respectively in TBS buffer for measurement on FluoroMax, were respectively 88% and 85%.

Absorption spectrum = format: physicochemical; details: in ethanol, water and ethanol/water (6:4), 2.3×10^−5M, room temperature
Description: Boc-badAla-OH prepared in Example 2 was dissolved respectively in ethanol, water and a mixture of ethanol and water (6:4) in a concentration of 2.3×10^−5M, and their absorption spectra were measured at room temperature using JASCO “V560” supplied by JASCO Corporation.

[1] = 0.01M NaOH, on the literature; cited from earlier work
[2] = TBS buffer, measured on FluoroMax, values on the literature; cited from earlier work

fluorescence lifetime τ (Fluorescence lifetime) [nanoseconds] | fluorescence intensity held relative to start of experiment (Photostability) [%] | maximum absorption wavelength (Absorption spectrum) | SMILES | fluorescence lifetime [1] [nanoseconds] | photostability (fluorescence intensity held) [2] [%]
16.6 | 95 | around 460 nm | CC(C)(C)OC(=O)NC(Cc1ccc2[nH]c3cc4ccccc4cc3c(=O)c2c1)C(=O)O (centres unmarked) [Boc-badAla-OH] | – | –
– | – | – | O=C1OC2(c3ccc(O)cc3Oc3cc(O)ccc32)c2ccc(N=C=S)cc21 [FITC] | 4.1 | 85
